# Test results reported in ChEMBL document CHEMBL1150263, “Combining docking, molecular dynamics and the linear interaction energy method to predict binding modes and affinities for non-nucleoside inhibitors to HIV-1 reverse transcriptase” (J Med Chem, 2008).
# Biological target: Human immunodeficiency virus type 1 reverse transcriptase (Human immunodeficiency virus 1, UniProt Q72547)
# Experiment: Inhibition of HIV1 reverse transcriptase
row,SMILES,IC50
1,CCCc1c(C)[nH]c(=O)c(N(C)C)c1Cc1cc(C)cc(C)c1,50 nM
2,CCc1[nH]c(=O)c(N(C)C)c(Cc2cc(C)cc(C)c2)c1C,10 nM
3,Cc1cc(C)cc(Cc2cc(C)[nH]c(=O)c2N(C)C)c1,398 nM
4,Cc1cc(C)cc(Cc2c(CC(C)C)c(C)[nH]c(=O)c2N(C)C)c1,50 nM
5,Cc1cc(C)cc(Cc2c(C)c(C)[nH]c(=O)c2N(C)C)c1,5 nM
6,Cc1cc(C)cc(Cc2c(C)c(C(C)C)[nH]c(=O)c2N(C)C)c1,794 nM
7,Cc1cc(C)cc(Cc2cc[nH]c(=O)c2N(C)C)c1,7940 nM
8,CCNC(=S)NNc1c(Cc2cccc(C)c2)c(CC)c(C)[nH]c1=O,25100 nM

# More lines, in order of falling IC50, values ahead:
row,IC50,SMILES
1,3160 nM,CCc1c(C)[nH]c(=O)c(NNC(=S)Nc2ccccc2)c1Cc1cccc(C)c1
2,316 nM,CCc1c(C)[nH]c(=O)c(NNC(N)=S)c1Cc1cccc(C)c1
3,10 nM,Cc1cc(C)cc(Cc2c3c([nH]c(=O)c2N(C)C)CCCC3)c1
4,8 nM,CCc1c(C)[nH]c(=O)c(N(C)C)c1Cc1cc(C)cc(C)c1
5,5 nM,CCC1C(Cc2cccc(C)c2)=C(N(C)CCO)C(=O)NC1C (stereo not drawn)
